Results as given in ChEMBL document CHEMBL5212743, “Selectivity Literature for EUbOPEN Chemogenomics Library wave 3” (2023).
pIC50: −log10 of the molar value. Blank lines part the entries; values can stand above or below the compound they belong to.

Tests used:
[1] = target: Serine/threonine-protein kinase 33 (Homo sapiens, UniProt Q9BYT3); experiment: Selectivity interaction (Enzymatic assay) EUB0000608a STK33
[2] = target: T1, Cyclin-G-associated kinase (Homo sapiens, UniProt O14976); experiment: Selectivity interaction (Enzymatic assay) EUB0000608a GAK
[3] = target: Serine/threonine-protein kinase PLK1 (Homo sapiens, UniProt P53350); experiment: Selectivity interaction (Enzymatic assay) EUB0000608a PLK1
[4] = target: Serine/threonine-protein kinase PLK3 (Homo sapiens, UniProt Q9H4B4); experiment: Selectivity interaction (Enzymatic assay) EUB0000608a PLK3
[5] = target: Serine/threonine-protein kinase PLK4 (Homo sapiens, UniProt O00444); experiment: Selectivity interaction (Enzymatic assay) EUB0000608a PLK4
[6] = target: Serine/threonine-protein kinase RIO3 (Homo sapiens) (UniProt O14730); experiment: Selectivity interaction (Ambit kinase binding assay panel) EUB0000609a RIOK3; conditions: at 10 µM
[7] = target: T2, Dual specificity protein kinase CLK1 (Homo sapiens, UniProt P49759); experiment: Selectivity interaction (Ambit kinase binding assay panel) EUB0000609a CLK1; conditions: at 10 µM
[8] = target: T2, Dual specificity protein kinase CLK1; experiment: Selectivity interaction (Enzymatic assay) EUB0000609a CLK1
[9] = target: T3, Mitogen-activated protein kinase 1 (Homo sapiens, UniProt P28482); experiment: Selectivity interaction (Ambit kinase binding assay panel) EUB0000609a MAPK1; conditions: at 10 µM
[10] = target: T3, Mitogen-activated protein kinase 1; experiment: Selectivity interaction (Enzymatic assay) EUB0000609a MAPK1
[11] = target: Mitogen-activated protein kinase 8 (Homo sapiens, UniProt P45983); experiment: Selectivity interaction (Ambit kinase binding assay panel) EUB0000609a MAPK8; conditions: at 10 µM
[12] = target: T4, Cyclin-G-associated kinase (Homo sapiens) (UniProt O14976); experiment: Selectivity interaction (Ambit kinase binding assay panel) EUB0000609a GAK; conditions: at 10 µM
T4 sequence (whole entry): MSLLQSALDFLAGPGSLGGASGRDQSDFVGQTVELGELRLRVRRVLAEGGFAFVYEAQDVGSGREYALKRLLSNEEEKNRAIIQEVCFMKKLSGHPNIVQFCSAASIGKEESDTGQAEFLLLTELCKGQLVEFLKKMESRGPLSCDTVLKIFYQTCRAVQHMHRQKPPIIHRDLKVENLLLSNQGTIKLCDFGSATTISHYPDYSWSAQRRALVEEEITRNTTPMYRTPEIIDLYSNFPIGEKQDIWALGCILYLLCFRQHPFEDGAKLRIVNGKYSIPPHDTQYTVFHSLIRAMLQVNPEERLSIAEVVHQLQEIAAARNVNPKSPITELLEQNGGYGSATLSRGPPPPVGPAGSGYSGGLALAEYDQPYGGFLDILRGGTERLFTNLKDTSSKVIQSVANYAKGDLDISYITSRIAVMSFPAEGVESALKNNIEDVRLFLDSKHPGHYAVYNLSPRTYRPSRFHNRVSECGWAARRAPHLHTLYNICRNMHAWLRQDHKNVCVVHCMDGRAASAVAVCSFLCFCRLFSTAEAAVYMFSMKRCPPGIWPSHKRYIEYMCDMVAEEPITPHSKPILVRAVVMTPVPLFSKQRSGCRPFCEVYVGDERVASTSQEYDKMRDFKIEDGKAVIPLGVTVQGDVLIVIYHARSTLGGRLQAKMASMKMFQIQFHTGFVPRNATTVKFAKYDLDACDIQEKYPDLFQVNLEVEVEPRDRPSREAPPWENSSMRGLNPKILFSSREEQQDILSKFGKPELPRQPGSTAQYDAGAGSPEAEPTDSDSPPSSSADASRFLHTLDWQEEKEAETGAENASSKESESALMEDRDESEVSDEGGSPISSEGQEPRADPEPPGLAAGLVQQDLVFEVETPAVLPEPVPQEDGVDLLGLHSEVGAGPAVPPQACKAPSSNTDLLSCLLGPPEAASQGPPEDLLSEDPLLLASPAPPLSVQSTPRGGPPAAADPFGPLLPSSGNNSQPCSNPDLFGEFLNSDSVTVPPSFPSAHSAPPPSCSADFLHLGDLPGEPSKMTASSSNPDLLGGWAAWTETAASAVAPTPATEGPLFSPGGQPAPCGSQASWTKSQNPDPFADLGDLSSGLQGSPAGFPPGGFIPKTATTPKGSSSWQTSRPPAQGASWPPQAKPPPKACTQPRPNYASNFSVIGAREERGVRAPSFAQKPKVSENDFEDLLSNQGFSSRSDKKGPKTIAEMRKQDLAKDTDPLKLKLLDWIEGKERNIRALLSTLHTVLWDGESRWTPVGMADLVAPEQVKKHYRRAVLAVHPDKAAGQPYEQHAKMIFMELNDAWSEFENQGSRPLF

[13] = target: T1, Cyclin-G-associated kinase; experiment: Selectivity interaction (Enzymatic assay) EUB0000609a GAK
[14] = target: Dual specificity mitogen-activated protein kinase kinase 4 (Homo sapiens) (UniProt P45985); experiment: Selectivity interaction (Ambit kinase binding assay panel) EUB0000609a MAP2K4; conditions: at 10 µM
[15] = target: Activated CDC42 kinase 1 (Homo sapiens, UniProt Q07912); experiment: Selectivity interaction (Enzymatic assay) EUB0000609a TNK2
[16] = target: Non-receptor tyrosine-protein kinase TNK1 (Homo sapiens, UniProt Q13470); experiment: Selectivity interaction (Enzymatic assay) EUB0000609a TNK1
[17] = target: T5, ALK tyrosine kinase receptor (Homo sapiens, UniProt Q9UM73); experiment: Selectivity interaction (Ambit kinase binding assay panel) EUB0000609a ALK; conditions: at 10 µM
[18] = target: T5, ALK tyrosine kinase receptor; experiment: Selectivity interaction (Enzymatic assay) EUB0000609a ALK
[19] = target: T6, Leukocyte tyrosine kinase receptor (Homo sapiens, UniProt P29376); experiment: Selectivity interaction (Ambit kinase binding assay panel) EUB0000609a LTK; conditions: at 10 µM
[20] = target: T6, Leukocyte tyrosine kinase receptor; experiment: Selectivity interaction (Enzymatic assay) EUB0000609a LTK
[21] = target: Focal adhesion kinase 1 (Homo sapiens, UniProt Q05397); experiment: Selectivity interaction (Enzymatic assay) EUB0000609a PTK2
[22] = target: T7, Protein-tyrosine kinase 2-beta (Homo sapiens, UniProt Q14289); experiment: Selectivity interaction (Ambit kinase binding assay panel) EUB0000609a PTK2B; conditions: at 10 µM
[23] = target: T7, Protein-tyrosine kinase 2-beta; experiment: Selectivity interaction (Enzymatic assay) EUB0000609a PTK2B
[24] = target: T8, Insulin-like growth factor 1 receptor (Homo sapiens, UniProt P08069); experiment: Selectivity interaction (Ambit kinase binding assay panel) EUB0000609a IGF1R; conditions: at 10 µM
[25] = target: T8, Insulin-like growth factor 1 receptor; experiment: Selectivity interaction (Enzymatic assay) EUB0000609a IGF1R
[26] = target: T9, Insulin receptor (Homo sapiens, UniProt P06213); experiment: Selectivity interaction (Ambit kinase binding assay panel) EUB0000609a INSR; conditions: at 10 µM
[27] = target: T9, Insulin receptor; experiment: Selectivity interaction (Enzymatic assay) EUB0000609a INSR
[28] = target: T10, Insulin receptor-related protein (Homo sapiens, UniProt P14616); experiment: Selectivity interaction (Ambit kinase binding assay panel) EUB0000609a INSRR; conditions: at 10 µM
[29] = target: T10, Insulin receptor-related protein; experiment: Selectivity interaction (Enzymatic assay) EUB0000609a INSRR
[30] = target: Serine/threonine-protein kinase N2 (Homo sapiens) (UniProt Q16513); experiment: Selectivity interaction (Ambit kinase binding assay panel) EUB0000609a PKN2; conditions: at 10 µM

T3 sequence (P28482 whole entry): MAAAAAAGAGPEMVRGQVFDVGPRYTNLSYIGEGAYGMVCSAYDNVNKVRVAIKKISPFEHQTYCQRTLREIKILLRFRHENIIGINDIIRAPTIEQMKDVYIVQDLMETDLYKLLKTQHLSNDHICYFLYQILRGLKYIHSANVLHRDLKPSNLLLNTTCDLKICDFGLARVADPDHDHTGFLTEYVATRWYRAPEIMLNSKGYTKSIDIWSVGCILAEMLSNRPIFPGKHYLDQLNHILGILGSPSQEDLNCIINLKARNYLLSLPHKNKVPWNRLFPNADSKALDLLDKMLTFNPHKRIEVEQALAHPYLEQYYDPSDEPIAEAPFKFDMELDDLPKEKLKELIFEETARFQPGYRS
T10 sequence (P14616 27-742 limits assumed): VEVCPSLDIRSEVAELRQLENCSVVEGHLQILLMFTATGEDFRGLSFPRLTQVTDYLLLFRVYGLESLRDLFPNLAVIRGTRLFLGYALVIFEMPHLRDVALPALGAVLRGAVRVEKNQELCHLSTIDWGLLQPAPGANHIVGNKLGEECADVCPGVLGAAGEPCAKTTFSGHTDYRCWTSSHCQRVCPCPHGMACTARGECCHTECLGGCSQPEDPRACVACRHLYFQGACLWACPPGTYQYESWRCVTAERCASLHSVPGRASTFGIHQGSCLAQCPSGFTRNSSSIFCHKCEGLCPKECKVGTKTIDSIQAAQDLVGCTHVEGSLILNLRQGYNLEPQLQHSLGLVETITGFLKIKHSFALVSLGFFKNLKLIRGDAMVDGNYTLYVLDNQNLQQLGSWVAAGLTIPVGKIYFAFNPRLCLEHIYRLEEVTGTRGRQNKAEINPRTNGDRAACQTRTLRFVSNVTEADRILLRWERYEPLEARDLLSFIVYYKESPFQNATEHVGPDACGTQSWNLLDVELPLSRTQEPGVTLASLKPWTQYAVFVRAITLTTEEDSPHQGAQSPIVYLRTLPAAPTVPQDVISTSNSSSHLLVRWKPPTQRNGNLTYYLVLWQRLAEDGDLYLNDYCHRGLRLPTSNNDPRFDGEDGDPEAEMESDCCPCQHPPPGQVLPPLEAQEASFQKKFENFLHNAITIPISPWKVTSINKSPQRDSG
T10 sequence (P14616 747-1297 limits assumed): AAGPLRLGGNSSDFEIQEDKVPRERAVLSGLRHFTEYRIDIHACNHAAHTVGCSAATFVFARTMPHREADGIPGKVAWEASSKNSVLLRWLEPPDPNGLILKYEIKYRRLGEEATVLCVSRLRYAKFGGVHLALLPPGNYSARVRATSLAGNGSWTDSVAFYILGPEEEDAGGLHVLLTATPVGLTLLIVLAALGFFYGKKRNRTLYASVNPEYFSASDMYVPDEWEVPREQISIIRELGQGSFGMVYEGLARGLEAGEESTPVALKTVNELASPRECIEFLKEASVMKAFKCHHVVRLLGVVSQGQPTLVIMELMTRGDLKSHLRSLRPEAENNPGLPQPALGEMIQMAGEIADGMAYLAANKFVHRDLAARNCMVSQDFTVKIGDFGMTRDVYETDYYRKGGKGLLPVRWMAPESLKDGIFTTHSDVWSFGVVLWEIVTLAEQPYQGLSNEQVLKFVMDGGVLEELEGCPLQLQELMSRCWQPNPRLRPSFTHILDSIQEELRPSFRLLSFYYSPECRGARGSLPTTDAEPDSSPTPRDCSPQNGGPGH
T8 sequence (P08069 31-736 limits assumed): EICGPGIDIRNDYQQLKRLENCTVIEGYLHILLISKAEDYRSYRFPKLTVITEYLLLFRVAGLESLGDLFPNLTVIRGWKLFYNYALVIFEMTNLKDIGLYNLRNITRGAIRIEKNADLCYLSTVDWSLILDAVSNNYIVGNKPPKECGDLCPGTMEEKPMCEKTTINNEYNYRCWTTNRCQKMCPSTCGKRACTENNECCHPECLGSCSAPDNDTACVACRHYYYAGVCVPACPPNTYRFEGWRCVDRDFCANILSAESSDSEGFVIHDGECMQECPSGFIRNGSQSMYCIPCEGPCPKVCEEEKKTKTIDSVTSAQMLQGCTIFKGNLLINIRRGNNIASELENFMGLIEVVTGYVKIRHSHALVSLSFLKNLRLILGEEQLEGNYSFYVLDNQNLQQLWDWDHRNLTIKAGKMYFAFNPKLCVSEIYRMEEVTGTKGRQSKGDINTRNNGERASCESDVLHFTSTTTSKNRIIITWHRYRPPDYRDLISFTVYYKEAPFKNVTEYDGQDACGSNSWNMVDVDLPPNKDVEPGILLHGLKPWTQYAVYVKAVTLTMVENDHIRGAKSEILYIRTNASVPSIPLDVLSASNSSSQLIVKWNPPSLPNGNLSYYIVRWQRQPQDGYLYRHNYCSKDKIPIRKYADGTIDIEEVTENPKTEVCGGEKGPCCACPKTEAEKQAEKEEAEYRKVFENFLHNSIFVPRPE
T8 sequence (P08069 741-1367 limits assumed): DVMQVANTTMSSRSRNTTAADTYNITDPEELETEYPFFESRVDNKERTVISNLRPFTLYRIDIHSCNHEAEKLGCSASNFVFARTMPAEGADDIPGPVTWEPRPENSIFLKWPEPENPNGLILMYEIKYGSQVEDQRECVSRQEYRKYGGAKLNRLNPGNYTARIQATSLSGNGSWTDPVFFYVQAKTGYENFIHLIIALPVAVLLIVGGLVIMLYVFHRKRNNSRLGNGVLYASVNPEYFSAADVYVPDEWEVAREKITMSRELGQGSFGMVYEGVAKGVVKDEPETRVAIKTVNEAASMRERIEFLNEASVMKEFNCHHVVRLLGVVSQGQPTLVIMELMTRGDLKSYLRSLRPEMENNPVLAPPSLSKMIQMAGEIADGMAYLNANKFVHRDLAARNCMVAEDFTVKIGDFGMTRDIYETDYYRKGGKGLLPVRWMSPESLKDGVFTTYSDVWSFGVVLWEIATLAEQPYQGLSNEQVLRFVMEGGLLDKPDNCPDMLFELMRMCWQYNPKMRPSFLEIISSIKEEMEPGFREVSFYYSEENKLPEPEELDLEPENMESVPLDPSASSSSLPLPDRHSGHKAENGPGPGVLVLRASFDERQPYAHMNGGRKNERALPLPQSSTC
T6 sequence (P29376 whole entry): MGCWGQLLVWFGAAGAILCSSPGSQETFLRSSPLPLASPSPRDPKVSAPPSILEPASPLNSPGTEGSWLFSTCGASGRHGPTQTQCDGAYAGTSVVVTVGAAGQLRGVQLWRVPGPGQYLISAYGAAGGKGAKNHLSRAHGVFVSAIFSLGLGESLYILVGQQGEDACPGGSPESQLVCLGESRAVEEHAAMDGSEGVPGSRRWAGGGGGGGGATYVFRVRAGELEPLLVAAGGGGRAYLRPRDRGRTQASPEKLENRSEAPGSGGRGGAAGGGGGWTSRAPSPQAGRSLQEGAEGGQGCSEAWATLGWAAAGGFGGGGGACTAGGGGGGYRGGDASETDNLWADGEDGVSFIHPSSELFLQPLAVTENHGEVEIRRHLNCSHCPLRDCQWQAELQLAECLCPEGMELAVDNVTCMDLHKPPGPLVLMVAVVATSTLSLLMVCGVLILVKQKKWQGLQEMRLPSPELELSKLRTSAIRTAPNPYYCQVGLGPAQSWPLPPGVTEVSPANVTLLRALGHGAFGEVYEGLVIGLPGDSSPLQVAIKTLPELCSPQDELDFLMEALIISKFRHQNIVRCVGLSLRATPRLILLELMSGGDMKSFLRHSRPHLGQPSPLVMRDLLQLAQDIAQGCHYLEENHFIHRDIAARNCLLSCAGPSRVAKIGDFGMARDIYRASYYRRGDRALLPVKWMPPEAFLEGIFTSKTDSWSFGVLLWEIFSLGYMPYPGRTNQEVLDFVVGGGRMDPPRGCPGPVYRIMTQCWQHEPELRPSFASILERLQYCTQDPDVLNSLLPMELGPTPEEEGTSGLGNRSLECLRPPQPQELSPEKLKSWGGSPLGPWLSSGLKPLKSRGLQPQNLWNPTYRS
Sequence of Serine/threonine-protein kinase 33 (Q9BYT3 whole entry): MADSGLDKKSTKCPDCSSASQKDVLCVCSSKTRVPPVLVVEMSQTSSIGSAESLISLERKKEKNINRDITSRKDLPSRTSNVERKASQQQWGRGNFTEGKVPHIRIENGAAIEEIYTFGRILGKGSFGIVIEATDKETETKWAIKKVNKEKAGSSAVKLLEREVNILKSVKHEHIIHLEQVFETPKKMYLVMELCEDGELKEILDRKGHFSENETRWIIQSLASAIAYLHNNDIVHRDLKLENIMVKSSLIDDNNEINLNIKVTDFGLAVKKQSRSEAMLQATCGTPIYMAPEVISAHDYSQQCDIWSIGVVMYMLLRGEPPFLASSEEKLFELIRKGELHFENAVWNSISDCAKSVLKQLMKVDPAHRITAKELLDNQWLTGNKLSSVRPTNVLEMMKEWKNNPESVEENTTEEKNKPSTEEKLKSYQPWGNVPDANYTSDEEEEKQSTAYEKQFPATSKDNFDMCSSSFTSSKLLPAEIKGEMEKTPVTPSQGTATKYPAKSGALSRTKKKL
Sequence of Mitogen-activated protein kinase 8 (P45983 whole entry): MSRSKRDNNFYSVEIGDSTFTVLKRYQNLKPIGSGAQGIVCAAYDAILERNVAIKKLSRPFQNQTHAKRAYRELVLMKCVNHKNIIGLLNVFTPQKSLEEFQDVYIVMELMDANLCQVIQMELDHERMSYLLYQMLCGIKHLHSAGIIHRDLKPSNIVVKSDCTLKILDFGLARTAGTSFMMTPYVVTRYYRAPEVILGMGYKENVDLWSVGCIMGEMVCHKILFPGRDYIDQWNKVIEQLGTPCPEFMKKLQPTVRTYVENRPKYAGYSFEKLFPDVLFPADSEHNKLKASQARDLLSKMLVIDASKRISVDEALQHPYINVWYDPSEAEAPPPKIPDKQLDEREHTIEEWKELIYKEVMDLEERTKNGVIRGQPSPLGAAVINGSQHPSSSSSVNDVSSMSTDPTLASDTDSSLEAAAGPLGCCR

pIC50 [1]: 5.30
pIC50 [2]: 6.85
pIC50 [3]: 7.21
pIC50 [4]: 5.80
pIC50 [5]: 5.51
Compound: CCOc1cc(N2CCC(O)CC2)ccc1Nc1ncc2c(n1)N(C1CCCC1)CCC(=O)N2C

% of control [6]: 0.5%
% of control [7]: 7.3%
pIC50 [8]: 5.72
% of control [9]: 6%
pIC50 [10]: 5.54
% of control [11]: 5.2%
% of control [12]: 5.4%
pIC50 [13]: 5.96
% of control [14]: 6.2%
pIC50 [15]: 5.51
pIC50 [16]: 5.59
% of control [17]: 8.9%
pIC50 [18]: 7.68
% of control [19]: 1.2%
pIC50 [20]: 7.54
pIC50 [21]: 6.36
% of control [22]: 0.5%
pIC50 [23]: 6.55
% of control [24]: 0.9%
pIC50 [25]: 6.12
% of control [26]: 0.15%
pIC50 [27]: 6.33
% of control [28]: 2%
pIC50 [29]: 5.92
% of control [30]: 0.1%
Compound: COc1cc(N2CCC(O)CC2)ccc1Nc1cc(Nc2ccccc2S(=O)(=O)C(C)C)c2cc[nH]c2n1
